From US6395740B1, “Calcitonin mimetics” (ZymoGenetics, Inc., priority 1997, dated 2002)
In brackets after ≈: the same amount, converted by molar mass.

What was measured:
[1] = biological target: T1, human calcitonin receptor (Homo sapiens, UniProt P30988); experiment: CRE-luciferase assay for calcitonin mimetic activity; format: cell-based
T1 construct: expressed in transfected cells; host or cells: BHK (baby hamster kidney) cells, line Hollex-2 (Hollex 1 in the general description)
T1 sequence (P30988 25-474): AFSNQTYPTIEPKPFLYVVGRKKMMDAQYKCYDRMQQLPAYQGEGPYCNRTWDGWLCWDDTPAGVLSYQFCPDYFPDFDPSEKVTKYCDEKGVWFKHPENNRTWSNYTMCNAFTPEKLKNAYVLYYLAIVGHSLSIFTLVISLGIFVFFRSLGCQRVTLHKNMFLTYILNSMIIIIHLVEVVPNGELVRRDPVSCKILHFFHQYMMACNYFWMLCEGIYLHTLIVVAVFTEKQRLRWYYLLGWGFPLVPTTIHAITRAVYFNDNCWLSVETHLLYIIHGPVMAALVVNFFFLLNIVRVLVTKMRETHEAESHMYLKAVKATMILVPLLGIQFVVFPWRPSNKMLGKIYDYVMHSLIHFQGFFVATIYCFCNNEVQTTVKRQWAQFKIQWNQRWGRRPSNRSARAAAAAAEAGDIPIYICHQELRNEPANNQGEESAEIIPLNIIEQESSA
From the text: An alternative assay system (described in WO96/31536 which is incorporated herein in its entirety) involves selection of substances that are able to induce expression of a cyclic AMP response element (CRE)-luciferase reporter gene, as a consequence of elevated cAMP levels, in cells expressing a calcitonin receptor, but not in cells lacking calcitonin receptor expression. Such cells could include, for example, Boris/KS10-3 (expressing hamster calcitonin receptor and a CRE-luciferase reporter gene in baby hamster kidney cells (BHK 570 cells)) or Hollex 1 (expressing human calcitonin receptor and a CRE-luciferase reporter gene in BHK cells, as described in WO96/31536) or KZ10-20-48/pLJ6-4-25, which expresses the human glucagon receptor and a CRE-luciferase reporter gene in BHK cells. The human glucagon receptor is another member of the G-protein-coupled receptor family that transduces signal through adenylate cyclase-mediated elevation of cAMP.
This CRE-luciferase assay measures the end result of a multi-step signal transduction pathway triggered when a calcitonin mimetic stimulates the G-coupled calcitonin receptor. The complexity of this pathway provides multiple mechanisms for induction of luciferase transcription at points that are downstream of the calcitonin receptor, and therefore may not be calcitonin receptor-specific (e.g., forskolin's direct activation of adenylate cyclase). Any response triggered by non-specific inducers is eliminated by counter screening using the calcitonin receptor-negative cell lines described above.
Receptor-positive and -negative cell lines were maintained by serial passage in growth medium (DMEM supplemented with 10% heat-inactivated fetal calf serum (HI-FCS), 2 mM L-glutamine, 1 mM sodium pyruvate, 250 nM MTX, and 1 mg/mL G418). On the day prior to assay, cells were trypsinized, adjusted to 2×10^5 cells/mL in growth medium, plated in opaque white Dynatech Microlite microtiter tissue culture plates at 100 μL/well (2×10^4 cells), and grown overnight to confluence (37° C., 5% CO2 atmosphere)
Test substances were prepared in DMSO at 100 times the final desired assay concentration. Induction was initiated by adding 100 μL/well test substance diluted 1:100 or 1:1000 (only first round screening extracts were diluted 1:100) in assay medium (DMEM supplemented with 10% HI-FCS, 2 mM L-glutamine, 1 mM sodium pyruvate and 20 mM Hepes, pH 7.25). Controls were included on each plate: untreated wells (basal), […] forskolin, and 100 nM human calcitonin. For test substances prepared in DMSO, an equal concentration of DMSO was included in control wells (not to exceed a final assay concentration of 2% DMSO, with a preferred maximum of 1%). Plates were incubated for 3 to 8 hours (4 hours preferred) at 37° C. in an atmosphere of 5% CO2.
Following induction, luciferase activity was measured using a Promega luciferase assay kit (E1500) according to the assay kit protocol. Briefly, assay medium was removed and cells were washed once with phosphate buffered saline (PBS). After the wash, 25 μL of lysis buffer was added to each well, and the plates were incubated for 15 minutes at room temperature. Fifty microliters of Luciferase Assay Substrate (Promega, Corp.) was added to each well and the plates were transferred to a Labsystems Lumiscan microtiter luminometer. The amount of luminescence (relative light units, RLU) was determined by “Fastscan” following a 0.1 second/well integration of signal. Basal (uninduced) luciferase signal was subtracted from all measurements, and the luciferase signal induced by test samples was expressed as a percentage of the signal in the calcitonin and forskolin controls. […]

[2] = test system: PTH-induced bone resorption in mouse calvariae; experiment: Calvarial assay: inhibition of PTH-induced bone resorption (calcium release); format: cell-based; settings: 1 nM PTH 1-34, 72 hours, read-out: Release of PTH Induced Ca++ IC50
Experimental: Calvaria from 4-day old neonatal CD-1 mice (pregnant mice received from Charles River Laboratories, Wilmington, Mass.) were trimmed with fine-tipped scissors to leave the parietal regions, including the sagittal suture. These trimmed bones were placed singly per well into 6-well cell culture cluster plates (Costar, Pleasanton, Calif.) with 1 mL/well of growth medium (DMEM, BioWhittaker, Walkersville, Md.) with 4.5 g/L glucose, 0.29 mg/mL L-glutamine, 1 mM sodium pyruvate, 15% heat-inactivated horse serum, and antibiotics (penicillin-G 50 μg/mL, streptomycin 50 μg/mL, and neomycin 100 μg/mL), and rocked gently (RedRocker™, model PR50-115V, Hoefer, San Francisco, Calif.) at 37° C. in a 5% CO2 humidified incubator for 24 hours preincubation.
Following preincubation, medium was removed and replaced with 1.5 mL/well of growth medium containing 1 nM parathyroid hormone (PTH) 1-34 (Sigma) to stimulate bone resorption. For evaluation of the ability of calcitonin mimetics to inhibit PTH induced bone resorption, mimetic compounds in DMSO were added to the growth medium at concentrations ranging from 1-400 μg/mL (final assay concentration of DMSO less than or equal to […]). In each exierimerec human calcitonin (0.02-20 nM, 0.2-2 nM preferred) was added to PTH treated bones as a positive control. […] All control wells contained a final assay concentration of DMSO equal to that present in calcitonin mimetic treated wells.
Five bones were included in each sample group. Bones were incubated for 72 hours following PTH addition to allow resorption of bone to occur. Observations were made of the general appearance, healthiness and number of cells that migrate from the calvaria during the incubation as a possible indication of possible toxicity. Calvaria to be examined histologically were transferred to glass scintillation vials containing 10 mL of 10% neutral buffered formalin. The medium was removed from the wells, and total calcium measurements were made using a Nova 7/7+7 Electrolyte Analyzer (Nova Biomedical, Waltham, Mass.) according to the manufacturer's specifications. Induction of bone resorption by PTH is seen as an increase in the concentration of calcium in the growth medium due to degradation of the bone matrix.

EC50 [1]: 61.1 to 122 µM
IC50 [2]: 25 to 50 µg/mL (≈ 61.1 to 122 µM)
SMILES: COc1cc(CN2CCN(C(=O)Nc3cccc(C(F)(F)F)c3)CC2)ccc1O [Compound 850-0231]
